Experimental data as given in PMC5584805 (Biochemistry, 2016).
Values joined by “and” are separate entries in the source; they are usually repeats but may differ in a detail not shown here. Equal values may be shown once. Read-outs that look alike come from different tables or passages of the source. Marks after values point to notes of the source that are not given here.

Key:
[1] = molecular target: T1, Escherichia coli CTP synthetase (EcCTPS) (Escherichia coli, UniProt P0A7E5); test: CTP synthesis assay; conditions: for IC50^ox/IC50^red: ratio of oxidized to reduced form IC50, standard conditions; for Kd: best fit; for apparent kcat at 2 μM EcCTPS: annealing at 40 μM EcCTPS; for EC50: EC50 (activation); for Ki: Ki (two-site model)
T1 sequence (P0A7E5 whole entry): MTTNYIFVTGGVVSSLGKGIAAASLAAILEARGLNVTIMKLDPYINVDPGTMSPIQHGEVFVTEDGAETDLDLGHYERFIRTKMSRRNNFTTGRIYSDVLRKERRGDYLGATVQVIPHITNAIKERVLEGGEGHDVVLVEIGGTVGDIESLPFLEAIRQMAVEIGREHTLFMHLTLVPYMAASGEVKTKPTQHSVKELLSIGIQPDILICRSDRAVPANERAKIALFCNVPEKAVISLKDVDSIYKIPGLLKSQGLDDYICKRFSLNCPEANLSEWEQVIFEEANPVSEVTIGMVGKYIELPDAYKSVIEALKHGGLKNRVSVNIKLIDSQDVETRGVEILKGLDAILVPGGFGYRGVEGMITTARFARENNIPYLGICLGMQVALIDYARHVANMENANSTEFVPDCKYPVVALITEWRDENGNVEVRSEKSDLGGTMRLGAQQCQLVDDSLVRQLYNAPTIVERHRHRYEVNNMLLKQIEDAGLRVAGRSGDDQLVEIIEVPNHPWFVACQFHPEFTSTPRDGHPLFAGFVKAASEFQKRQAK

E277R EcCTPS = E277R EcCTPS (Escherichia coli, UniProt P0A7E5, E277R); test: CTP synthesis assay, filament-blocking mutant E277R EcCTPS; assay type: biochemical
Chain of E277R EcCTPS (P0A7E5 whole entry E277R): as the sequence (P0A7E5 whole entry) above, with E277R counted along it

[2] = molecular target: T1, Escherichia coli CTP synthetase (EcCTPS); conditions: read-out: IC50 (inhibition of CTP synthesis); higher GTP concentrations; cited from earlier work
[3] = system: CTPS glutamine hydrolysis; conditions: low concentrations (0–200 μM); cited from earlier work
EcCTPS = EcCTPS (Escherichia coli, UniProt P0A7E5); test: Ammonia-dependent CTP synthesis; assay type: biochemical; conditions: Figure S6
Chain of EcCTPS (P0A7E5 whole entry): as the sequence (P0A7E5 whole entry) above

[4] = inhibitor alone, activating GTP (50 or 200 μM)
[5] = standard: 200 nM EcCTPS, 1.5 mM ATP, 600 μM UTP, 10 mM glutamine, 200 μM GTP (unless GTP titrated), linear extrapolation
[6] = IC50, standard: 200 nM EcCTPS, 1.5 mM ATP, 600 μM UTP, 10 mM glutamine, 200 μM GTP (unless GTP titrated), linear extrapolation
[7] = 100 nM enzyme, other substrates saturating, 200 μM GTP
[8] = limiting substrate titrated, other substrates saturating, 200 μM GTP, 37 °C
[9] = two ligands present (second inhibitor)

Compound: CN1C=CCC(C(N)=O)=C1 [1MDHN, 1-methyl 1,4-dihydronicotinamide]
- increase of inhibition potency ([1]; by 400 μM CTP): more than 2 fold
- K2/K1 (sequential binding model) [1, 4]: 4–40
- K3/K2 (sequential binding model) [1, 4]: 0.2–0.8
- IC50^ox/IC50^red [1]: >28
- IC50 [1, 5]: 140 ± 10 µM

Compound: C[n+]1cccc(C(N)=O)c1 [1MeN, 1-methylnicotinamide]
- inhibition at 3000 µM [1]: < 25%
- IC50 [1, 6]: ~4000 µM

Compound: Nc1ncnc2c1ncn2[C@@H]1O[C@H](COP(=O)(O)OP(=O)(O)O)[C@@H](O)[C@H]1O [ADP, adenosine 5’-diphosphate]
- inhibition at 3000 µM [1]: 35%
- IC50 [1, 6]: ~4500 µM

Compound: Nc1ncnc2c1ncn2[C@@H]1O[C@H](COP(=O)(O)OP(=O)(O)OP(=O)(O)O)[C@@H](O)[C@H]1O [ATP, adenosine 5’-triphosphate]
- Hill coeff, nH [1, 7]: 1.7 ± 0.3
- S0.5 [1, 7]: 126 ± 13 µM
- S0.5 ([1]; 50 μM GTP): 81 ± 5 µM
- Hill coeff, nH ([1]; 60 μM UTP): 1.9 ± 0.4 (5)
- S0.5 ([1]; 60 μM UTP): 310 ± 20 µM
- S0.5 ([1]; 500 μM GTP): 155 ± 25 µM
- Hill coeff, nH [1, 8]: 1.7 ± 0.2 (18)^c

Compound: Nc1ccn([C@@H]2O[C@H](COP(=O)(O)OP(=O)(O)OP(=O)(O)O)[C@@H](O)[C@H]2O)c(=O)n1 [CTP, cytidine-5’-triphosphate]
- inhibition at 750 µM [1]: 85%
- limiting slope of Hill plot, high concentration range ([1]; 50 μM UTP, 100 nM EcCTPS): −1.9 ± 0.3
- limiting slope of Hill plot, low concentration range ([1]; 50 μM UTP, 100 nM EcCTPS): −0.6 ± 0.2
- IC50 ([1]; IC50, 50 μM GTP, otherwise standard): 620 ± 30 µM
- IC50 ([1]; IC50, 500 μM GTP, otherwise standard): 220 ± 60 µM
- IC50 [1, 6]: ~370 µM and 370 µM
- Kd ([1]; K1 (four-site sequential binding model), standard conditions): 446 µM
- Kd ([1]; K2 (four-site sequential binding model), standard conditions): 2120 µM
- Kd ([1]; K3 (four-site sequential binding model), standard conditions): 1170 µM
- Kd ([1]; K4 (four-site sequential binding model), standard conditions): 7.5 µM
- increase of inhibition potency ([1]; by 500 μM NADH): 2.3 fold
- IC50 ([1]; fit IC50 value (four-site sequential binding model), standard conditions): 385 µM
- K2/K1 (sequential binding model) [1, 4]: 4–40
- K3/K2 (sequential binding model) [1, 4]: 0.2–0.8
- IC50 relative to UTP concentration (fold lower) ([1]; saturating UTP (600 μM)): 1.6 fold
- average slope of Hill plot ([1]; standard conditions): −2.0
- K2/K1 (sequential binding model) [1, 9]: 0.4–0.8
- K3/K2 (sequential binding model) [1, 9]: 40–250

Compound: Nc1nc2c(ncn2[C@@H]2O[C@H](COP(=O)(O)OP(=O)(O)OP(=O)(O)O)[C@@H](O)[C@H]2O)c(=O)[nH]1 [GTP, guanosine-5’-triphosphate]
- EC50 (E277R EcCTPS): 46 ± 6 µM
- IC50 (E277R EcCTPS): 697 ± 4 µM
- Ki (E277R EcCTPS): 342 µM
- kact (two-site model) (E277R EcCTPS; 200 nM E277R): 10.7 s⁻¹
- ninh (two-site model) (E277R EcCTPS; 200 nM E277R): 3.8
- IC50 [2]: ~500 µM
- activation of glutamine hydrolysis [3]: up to 50 fold
- kact (two-site activation/inhibition model) ([1]; 200 nM WT, no other inhibitor): 10.7 s⁻¹
- ninh (two-site model) ([1]; 200 nM WT, no other inhibitor): 4.7
- kact (two-site model) ([1]; 4 μM WT): 4.7 s⁻¹
- ninh (two-site model) ([1]; 4 μM WT): 4.1
- enzyme concentration for 50% autoinhibition ([1]; 50 μM GTP): 6.1 µM
- apparent kcat at 2 μM EcCTPS ([1]; 50 μM GTP): 2.9 s⁻¹
- enzyme concentration for 50% autoinhibition ([1]; 200 μM GTP): 3.9 µM
- apparent kcat at 2 μM EcCTPS ([1]; 200 μM GTP): 5.0 ± 0.1 s⁻¹
- enzyme concentration for 50% autoinhibition ([1]; 500 μM GTP): 2.8 µM
- apparent kcat at 2 μM EcCTPS ([1]; 500 μM GTP): 2.7 ± 1.0 s⁻¹
- EC50 ([1]; 4 μM WT EcCTPS): 27 ± 7 µM
- EC50 ([1]; standard: 200 nM EcCTPS, 1.5 mM ATP, 600 μM UTP, 10 mM glutamine): ~38 µM and 38 µM
- IC50 ([1]; IC50, 4 μM WT EcCTPS): 455 ± 46 µM
- IC50 [1, 6]: 540 ± 60 µM
- Ki ([1]; 200 nM WT, no other inhibitor): 301 µM
- Ki ([1]; 4 μM WT): 221 µM
- optimal GTP concentration ([1]; in presence of 500 μM NADH): approximately 100 μM
- concentration of maximum activation ([1]; standard conditions): ~ 200 μM

Compound: NC(=O)C1=CN([C@@H]2O[C@H](COP(=O)(O)OP(=O)(O)OC[C@H]3O[C@@H](n4cnc5c(N)ncnc54)[C@H](O)[C@@H]3O)[C@@H](O)[C@H]2O)C=CC1 [NADH, 1,4 dihydronicotinamide adenine dinucleotide (reduced)]
- dose–response of E277R compared with wild-type (E277R EcCTPS; 200 nM enzyme, 0–1500 μM NADH): no significant differences between wild-type and mutant
- effect on ammonia-dependent synthesis (EcCTPS): inhibits
- IC50 ([1]; 50 μM GTP, otherwise standard): 770 ± 30 µM
- dependence of inhibition potency on enzyme concentration ([1]; Figure S4): independent of enzyme concentration from 50 to 400 nM
- inhibition ([1]; at 1250 μM, standard conditions): greater than 95%
- increase of inhibition potency ([1]; by 400 μM CTP): ~ 2.1 fold
- K2/K1 (sequential binding model) [1, 4]: 4–40
- K3/K2 (sequential binding model) [1, 4]: 0.2–0.8
- IC50^ox/IC50^red [1]: 3.7
- IC50 [1, 5]: 470 ± 40 µM
- K2/K1 (sequential binding model) [1, 9]: 0.4–0.8
- K3/K2 (sequential binding model) [1, 9]: 40–250

Compound: NC(=O)C1=CN([C@@H]2O[C@H](COP(=O)(O)OP(=O)(O)OC[C@H]3O[C@@H](n4cnc5c(N)ncnc54)[C@H](OP(=O)(O)O)[C@@H]3O)[C@@H](O)[C@H]2O)C=CC1 [NADPH, 1,4 dihydronicotinamide adenine dinucleotide 2’-phosphate (reduced)]
- IC50^ox/IC50^red [1]: 2.8
- IC50 [1, 5]: 450 ± 20 µM

Compound: NC(=O)c1ccc[n+]([C@@H]2O[C@H](COP(=O)([O-])OP(=O)(O)OC[C@H]3O[C@@H](n4cnc5c(N)ncnc54)[C@H](OP(=O)(O)O)[C@@H]3O)[C@@H](O)[C@H]2O)c1 [NADP^+, nicotinamide adenine dinucleotide 2’-phosphate (oxidized)]
- IC50 [1, 5]: 1280 ± 50 µM

Compound: NC(=O)c1ccc[n+]([C@@H]2O[C@H](COP(=O)([O-])OP(=O)(O)OC[C@H]3O[C@@H](n4cnc5c(N)ncnc54)[C@H](O)[C@@H]3O)[C@@H](O)[C@H]2O)c1 [NAD^+, nicotinamide adenine dinucleotide (oxidized)]
- fold less effective inhibition than NADH ([1]; standard conditions): ~ 3 fold
- IC50 [1, 5]: 1700 ± 70 µM

Compound: O=c1ccn([C@@H]2O[C@H](COP(=O)(O)OP(=O)(O)OP(=O)(O)O)[C@@H](O)[C@H]2O)c(=O)[nH]1 [UTP, uridine-5’- triphosphate]
- Hill coeff, nH [1, 7]: 1.3 ± 0.2
- S0.5 [1, 7]: 57 ± 8 µM
- Hill coeff, nH ([1]; 150 μM ATP (subsaturating)): 1.8 ± 0.1 (6)
- S0.5 ([1]; 150 μM ATP (subsaturating)): 200 ± 40 µM
- Hill coeff, nH [1, 8]: 1.4 ± 0.3 (23)^b

Compound: NC(=O)CC[C@H](N)C(=O)O [glutamine]
- Hill coeff, nH [1, 7]: 1.1 ± 0.1 (11)
- S0.5 [1, 7]: 360 ± 20^e μM
